Measured values from patent US20210332436A1, “STEM CELL-BASED MULTIPLEX METHODS AND COMPOSITIONS” (MEMORIAL SLOAN-KETTERING CANCER CENTER, priority 2018, published 2021).

How the values were obtained:
[1] = test system: day 35 MIX30 PFC cultures; assay: Multiplex PFC WNT response assay (CHIR99021 treatment of pooled PFC cultures, stem cell proliferation/enrichment readout); type: cell-based, human; settings: 3 μM for 10 days, vs untreated
Description: In addition to probing developmental phenotypes related to cell fate specification and proliferation, the present multiplex platform also allows us to evaluate the cell-type specific activity of key molecular pathways. The WNT/βcatenin pathway is a critical regulator of stem cell proliferation and neurogenesis during cortical development (Hirabayashi et al., Development 131, 2791-2801 (2004); Munji et al., J Neurosci 31, 1676-1687 (2011); Chenn, Organogenesis 4, 76-80 (2008)) and is a central node among a network of autism-related genes (Packer, Mol Psychiatry, (2016); Krumm et al., Trends Neurosci 37, 95-105 (2014); Gilman et al., Neuron 70, 898-907 (2011)). It was therefore tested autism lines for the ability to respond to WNT/βcatenin signaling by treating day 35 MIX30 PFC cultures with the GSK3α/β inhibitor CHIR99021 (3 μM) for 10 days, using stem cell proliferation as an initial readout of WNT activity (Kim et al., Nat Neurosci 12, 1390-1397 (2009)) (FIG. 3a). […] Lineage specificity of the WNT-response phenotype was assessed by differentiating the MIX30 library to CD49d^+ cranial neural crest (CNC) precursors ([…] et al., Nature 531, 105-109 (2016)), whose specification is dependent on WNT/β catenin activity (Dorsky et al., Nature 396, 370-373 (1998)) (FIG. 3c, FIGS. 10d-10f). […] DNA was quantified using a fluorometer (Qubit 3.0, Thermo Q33216). […]

Day 20 PFC cultures = assay: Single genotype analysis of WNT responsiveness during PFC development (proliferation Ki67/DAPI and cell-cycle re-entry Ki67+EdU+/Ki67+); type: cell-based, human
Procedure: FIGS. 15a-15d provide additional data related to WNT assays. FIG. 15a provides PFC WNT response of autism lines relative to a negative control (UMOD). WNT response is measured by relative change in stem cell enrichment versus an untreated control. Red bars indicate significant increases or decreases in WNT response (FDR<0.05). FIG. 15b provides efficiency of neural crest specification relative to a negative control (UMOD). Red bars indicate significant increases or decreases in WNT response (FDR<0.05). FIG. 15c provides schematic of quantification for zebrafish jaw development at 7 dpf. A straight line is drawn from the top of the eyes, and second line is then drawn to the middle of the upper jaw. The angle between the two lines (0) is measured using ImageJ. A cut-off value of −1 s.d. (red line) from the mean (green line) of the no injection group was used to define hypomorphic animals. Graphs show raw data that underlie the hypomorph quantification in FIG. 3e. p<0.0001 for group differences calculated by non-parametric Kruskall-Wallis test, followed by dunn's test for multiple comparisons CTNNB1 p=0.0007, ANKRD11 p=0.0013, CUL3 p=0.0073, KMT2C p=0.0007. dpf, Days post fertilization. FIG. 15d provides a single genotype analysis of WNT responsiveness during PFC development. […] Day 20 PFC cultures were treated with CHIR99021 (0.6 μM) for 2 days or left untreated. At day 22, cultures were pulsed with EdU using the EdU Click-iT system according to manufacturer protocol (ThermoFisher Scientific C10640). Briefly, cells were treated with EdU for 1 hour, dissociated with Accutase for 30 minutes at 37 C, and passaged onto laminin/fibronectin coated plates at a density of 200,000-400,000 cells/cm2 in the presence of ROCK inhibitor (Y-27632, 10 μM, Tocris 1254). Cell were fixed 18 hours later and fixed for immunocytochemistry. ImageJ was used for cell counting. Images were thresholded to define individual cells (particles) and cells were counted using the analyze particle function.

[2] = 5/5 class 1 lines compared to MEL1, 0.6 μM for 2 days

Cc1c[nH]c(-c2cnc(NCCNc3ccc(C#N)cn3)nc2-c2ccc(Cl)cc2Cl)n1 [CHIR99021]
stem cell proliferation (readout of WNT activity) [1]: enhanced stem cell proliferation
proliferation response to CHIR (CHIR/Baseline, Ki67/DAPI) (Day 20 PFC cultures; [2]): blunted proliferation response
rates of cell-cycle re-entry (Ki67+EdU+/Ki67+) in response to CHIR (Day 20 PFC cultures; [2]): blunted response
rates of cell-cycle re-entry (Ki67+EdU+/Ki67+) in response to CHIR (Day 20 PFC cultures; control lines, 0.6 μM for 2 days): increased rates of cell-cycle re-entry
